We go through 4 compounds from patent US10329304B2, “Compounds and methods for inhibition of hedgehog signaling and phosphodiesterase” (Vanderbilt University, priority 2014, dated 2019).

One series deals with consensus PDE4D sequence (Homo sapiens, UniProt Q08499). The experiment in a line: PDE4D inhibition (consensus PDE4D sequence). It counts as biochemical.
The next series has as its system otic kino-cilia motility. The series can be described thus: Video-microscopy of zebrafish otic kino-cilia. It counts as in vivo. Particulars: 2 μM. The text has this: For visualizing ciliary beating, live embryos (20 hpf) were removed from their chorion, mounted in SeaPlaque low-melting agarose (Biowhittaker Molecular Applications) (1.0% in embryo medium) in microwells of glass-bottom culture dishes (MatTek), and covered with embryo medium. Movies were acquired by using OPENLAB software (Improvision) at 55 frames per second with a 63×DIC objective on a Zeiss Axiovert 200 inverted fluorescence microscope equipped with a Retiga Exi Fast camera (Qimaging). Kymographs were obtained by drawing a line across a ciliary trajectory by using ImageJ software (National Institutes of Health, developed by W. Rasband) and Multiple-Kymograph plugin (developed by J. Rietdorf and A. Seitz).

The next series concerns Gli2 trafficking. The experiment in a line: Gli2 ciliary localization and nuclear fraction western blot in NIH3T3 cells. It counts as cell-based. Particulars: SAG 20 nM; for Gli2 localization in the primary cilium: 5 μM; for SAG-induced nuclear accumulation of full-length Gli2: Egm 10 μM, FSK 30 μM. (A western blot detects proteins with antibodies after separation by electrophoresis.)

Series [1] is described as follows: Mouse echocardiography after IP injection. It counts as in vivo. The following applies: for Heart rate: 5 mg/kg to 20 mg/kg IP. On the procedure: As shown below (FIGS. 28 and 29), ionotropic effects are seen within 30 minutes of eggmanone administration to a mouse (20 mg/kg IP injection). […] Mechanistically compound EGM targets the hydrolase PDE4. In Human adult myocardium, PDE4 localizes strictly to the z-bands.

Another series deals with BMP signaling (BRE-luc). The experiment in a line: BMP4-responsive reporter (BRE-luc) in C2C12BRA cells. It counts as cell-based. The following applies: stimulated with BMP4 ligand.
For the next series, the system named is IFT88 localization. The experiment in a line: IFT88 immunostaining in NIH3T3 cells. It counts as cell-based. Particulars: EGM 5 μM; ciliobrevin D 100 μM. The text has this:
To investigate whether the disruption of the cilium-to-nucleus trafficking of Gli2 by eggmanone was due to a general defect in the retrograde transport within the primary cilium, we compared the effect of the cytoplasmic dynein motor inhibitor ciliobrevin D with the effect of eggmanone on the intraflagellar transport protein 88 (IFT88) trafficking^19. […] Thus, the effects of eggmanone on Gli2 trafficking is specific, rather than an indirect consequence of a global defect in ciliary transport machinery.

In series [2] the test system is total cellular cAMP levels. The experiment in a line: cAMP assay (total cellular cAMP, EIA chemiluminescence). It counts as cell-based. The protocol: Shh-Light2 cells were seeded in a 96-well plate and incubated overnight. Varying concentrations of Rolipram or Eggmanone (0.013 uM-30 uM) or DMSO only were added to the cells in the absence of serum and incubated 30 minutes, at which time forskolin was added for a final concentration of 1 uM. After an additional 15 minutes, cells were washed with PBS and assayed for cAMP levels using EIA based chemiluminescence kit according to the manufacturer's protocol (Cell Signaling Technologies, Danvers, Mass.).

The subject of series [3] is PDE4D3-induced Hh reporter activity. The series can be described thus: Hh reporter activity in Shh-Light2 cells transfected with PDE4D3. The following applies: 5 μM. It counts as cell-based. On the procedure: (§1) For Hh signaling assays, Shh-Light2 cells stably transfected with Gli-Luciferase reporter construct were used along with Shh-conditioned media, as previously described^7. Alternatively, 3 μM purmorphamine or 20 nM Smoothened agonist (SAG) (Santa Cruz Biotechnology, Santa Cruz, Calif.) was used to induce Hh signaling. Reporter cells were seeded in 96-well plates and incubated overnight with the various concentrations of eggmanone and Shh-conditioned media. To assess the effects of overexpression of Gli-2, PDE4D3 and DN-PDE4D3 on Hh signaling, mammalian expression vectors containing these constructs were transfected into Shh-Light2 cells in 96-well plates using Fugene6 (Roche), according to manufacturer's instructions. The transfected or Shh-stimulated cells were incubated overnight with the various concentrations of compound. The cells were then lysed, and cell extracts were subjected to Steady-Glo luciferase assay (Promega) according to manufacturer's instructions. The results were normalized to cell titer, as determined using Cell Titer-Glo luminescence assay (Promega).

Series [4] relates to Gli-Luc reporter activity. The series can be described thus: Gli-luciferase reporter under Gli overexpression. It counts as cell-based. On the procedure: as §1
A general note: Reporter assays use an easily measured gene product as a stand-in for the process of interest.

For another series, the system named is SmoM2-Light cells. The series can be described thus: Cell viability of SmoM2-Light cells. It counts as cell-based. On the procedure: Cancer cell lines were seeded in 96 well tissue culture plate at a low density (10,000 cells per well) and treated with varying concentrations of Eggmanone. After 72 hr incubation, CellTiter-Blue Cell Viability Assay (Promega, Madison, Wis.) was then performed according to manufacturer's protocol. Absorbance was then measured in a Modulus Microplate reader (Promega, Madison, Wis.) at 590 nm and compared to cells treated with DMSO.

The subject of a further series is 11 PDE families. The series can be described thus: In vitro PDE activity assays across 11 PDE families. It counts as biochemical. The protocol:
In vitro PDE profiling and dose-response assays were performed by BPS Biosciences (San Diego, Calif.). Kinetic Mechanism of inhibition studies were conducted by Millipore (St. Louis, Mo.). In brief, the PDE assay measures fluorescent polarization of FAM-AMP as FAM-cAMP is converted to FAM-AMP by PDE), the binding agent.
A series of dilutions of the test compound were prepared with 10% DMSO in assay buffer and 5 μl of the dilution was added to a 50 μl reaction so that the final concentration of DMSO is 1% in all of reactions. All of the PDE enzymatic reactions were conducted in duplicate at room temperature for 60 minutes in a 50 μl mixture containing PDE assay buffer (10 mM Tris-HCl, pH7.4, 10 mM MaCl2, 0.05% Tween 20), 100 nM FAM-cAMP, a PDE enzyme and a test compound.
After the enzymatic reaction, 100 μl of a binding solution (1:100 dilution of the binding agent, which contains the nano beads that recognize FAM-AMP, with the binding agent diluent) was added to each reaction and the reaction was performed at room temperature for 60 minutes. Fluorescence intensity was measured at an excitation of 485 nm and an emission of 528 nm using a Tecan Infinite M1000 microplate reader. Assays done by Millipore were conducted similarly with changes noted below: […]

The mark [5] stands for this setting: healthy wild type mice and mice with heart failure.

“Also recorded” adds a separate entry of the source. Where two headings read alike, the source gives them in different places.

consensus PDE4D sequence, sequence (Q08499 whole entry): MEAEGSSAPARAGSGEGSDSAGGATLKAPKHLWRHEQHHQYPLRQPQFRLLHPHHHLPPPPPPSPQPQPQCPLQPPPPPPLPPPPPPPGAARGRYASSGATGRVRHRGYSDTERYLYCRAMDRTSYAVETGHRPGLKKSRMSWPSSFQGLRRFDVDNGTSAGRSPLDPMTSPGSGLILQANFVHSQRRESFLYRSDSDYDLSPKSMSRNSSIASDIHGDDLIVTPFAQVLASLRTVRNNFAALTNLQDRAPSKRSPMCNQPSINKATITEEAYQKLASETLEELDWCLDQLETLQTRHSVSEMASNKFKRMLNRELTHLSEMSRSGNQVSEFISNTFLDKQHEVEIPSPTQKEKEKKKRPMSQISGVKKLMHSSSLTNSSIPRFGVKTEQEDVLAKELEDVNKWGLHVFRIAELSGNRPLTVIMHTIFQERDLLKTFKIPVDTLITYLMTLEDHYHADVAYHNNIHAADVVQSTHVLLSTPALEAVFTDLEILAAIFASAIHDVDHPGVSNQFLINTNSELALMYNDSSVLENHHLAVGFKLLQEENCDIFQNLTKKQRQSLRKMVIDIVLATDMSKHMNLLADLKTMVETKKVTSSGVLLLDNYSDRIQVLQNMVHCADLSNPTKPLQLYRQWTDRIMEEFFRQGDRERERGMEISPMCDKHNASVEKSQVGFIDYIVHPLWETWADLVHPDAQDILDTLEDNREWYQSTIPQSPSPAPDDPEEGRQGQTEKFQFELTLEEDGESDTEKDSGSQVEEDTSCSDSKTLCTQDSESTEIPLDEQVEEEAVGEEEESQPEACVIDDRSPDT
Description for consensus PDE4D sequence: First, the contribution of PDE4 was revisited as a potential explanation for the observed mechanistic drift.

`CCCn1c(SCC(=O)c2cccs2)nc2sc3c(c2c1=O)CCCC3` [Formula 9e]: the “PDE4D inhibition in words” value at consensus PDE4D sequence is reported as “tracked well with EGM1's IC50:EC50 ratio”.

In the case of `C=C(C)Cn1c(SCC(=O)c2cccs2)nc2sc3c(c2c1=O)CCCC3` [Eggmanone, 3-(2-methylallyl)-2-((2-oxo-2-(thiophen-2-yl)ethyl)thio)-5,6,7,8-tetrahydrobenzo[4,5]thieno[2,3-d]pyrimidine-4(3H)-one], the Otic kino-cilia movement entry with otic kino-cilia motility and in the series with otic kino-cilia motility (listed as eggmanone) was “markedly less motile” in each case. Moreover, the “Gli2 localization in the primary cilium” value in the series with Gli2 trafficking is reported as “significantly more Gli2 accumulated in Eggmanone-treated cilia than in controls”; with Gli2 trafficking (listed as eggmanone), “more Gli2 accumulated in eggmanone-treated cilium than in controls”. Further, the “SAG-induced nuclear accumulation of full-length Gli2” value (from here on “SAG-induced nuclear accumulation”) in the series on Gli2 trafficking and with Gli2 trafficking (listed as eggmanone) was “blunted the nuclear accumulation of the full-length Gli2” in each case. In addition, in series [1], the Heart rate result is given as “without increasing heart rate”. Besides, in series [1] (20 mg/kg IP injection), the “Time to ionotropic effects” value is at most 30 min. In series [1] (setting [5]), the “Fractional shortening (FS)” value is “increases fractional shortening (FS) and ejection fraction (EF)”. In addition, the “BMP4-responsive reporter (BRE-luc) activity” value is on record as “did not affect BMP-responsive luciferase reporter activity; also recorded: had no significant effects on BMP4-responsive reporter (BRE-luc) activity” with BMP signaling (BRE-luc) and “did not affect BMP-responsive luciferase reporter activity” in the series on BMP signaling (BRE-luc) (listed as eggmanone). The “IFT88 localization in the cilium” value with IFT88 localization is reported as “had no effect on IFT88 localization or cilium morphology”. Moreover, the “Total cellular cAMP levels” value in series [2] is given as “had no effect on total cellular cAMP content; also recorded: did not significantly increase total cAMP levels”; in series [2] (listed as eggmanone), “did not increase total cAMP levels”. Also, the “Hh reporter activity induced by wild-type PDE4D3 overexpression” value was “abrogated; also recorded: abolished” in series [3] and “abrogated” in series [3] (listed as eggmanone). Moreover, in series [4], the “Gli-luciferase reporter activity under Gli2 overexpression” value is “did not block Gli-Luc reporter activity in cells transiently overexpressing Gli2”. In addition, the “Viability of SmoM2 cells” value in the series on SmoM2-Light cells is “efficiently and selectively killed SmoM2-Light cells”. The “Inhibition across PDE families” value is recorded as “significantly inhibited only the PDE4 family” with 11 PDE families (10 μM (10 and 50 μM in b110)); “significantly inhibited only the cAMP specific PDE4 family” with 11 PDE families (10 μM (10 and 50 μM in b110), listed as eggmanone).

On to `C=C(C)Cn1c(SCC(=O)c2cccs2)nc2sc3c(c2c1=O)CCCC3` [EGM, Eggmanone], for which the Otic kino-cilia movement result in the series on otic kino-cilia motility is given as “cilium movement is markedly reduced”. In addition, in the series with otic kino-cilia motility (listed as Egm), the Otic kino-cilia movement result is listed as “cilia movement is markedly reduced”. In the series on Gli2 trafficking, the “Gli2 localization in the primary cilium” value is on record as “significantly increased Gli2 localization in the cilium” and the “SAG-induced nuclear accumulation” value was “abrogated”. In the series on Gli2 trafficking (listed as Egm), the “Gli2 localization in the primary cilium” value is given as “significantly increased Gli2 localization in the cilia” and the “SAG-induced nuclear accumulation” value is “abrogated”. In addition, the Heart rate result in series [1] is on record as “without increasing heart rate; also recorded: does not increase the heart rate”. In series [1] (setting [5]), the “End-diastolic left ventricular internal dimension (LVIDd)” value is given as “decreases end-diastolic left ventricular internal dimension (LVIDd)” and the “Fractional shortening (FS)” value was “increases fractional shortening (FS)”. Also, in series [1] (mice), the Side effects entry is given as “no significant side effects” and the “Time to return to baseline heart function” value is at most 24 h. In the series with BMP signaling (BRE-luc), the “BMP4-responsive reporter (BRE-luc) activity” value was “had no significant effects on BMP4-responsive reporter (BRE-luc) activity”. For the same compound, the “IFT88 localization in the cilium” value in the series with IFT88 localization is listed as “did not affect IFT88 localization”. The “Total cellular cAMP levels” value in [2] is listed as “without raising total cellular cAMP content”. In series [2] (listed as Egm), the “Total cellular cAMP levels” value is “only caused small increase at concentrations above those required to inhibit Hh signaling”. Moreover, the “Hh reporter activity induced by wild-type PDE4D3 overexpression” value in series [3] is “abolished”. The “Gli-luciferase reporter activity under Gli2 overexpression” value in series [4] is “had no significant effect on Gli-luciferase reporter activity under Gli2 overexpression conditions”. The “Viability of SmoM2 cells” value in the series with SmoM2-Light cells (listed as Egm) is “rapid (within 24-hrs) decline in viability”. For the same compound, in the series on 11 PDE families (10 μM (10 and 50 μM)), the “Inhibition across PDE families” value is recorded as “significantly inhibited only the PDE4 class”.

Turning to `C=C(C)Cn1c(SCC(=O)c2ccccc2)nc2sc3c(c2c1=O)CCCC3` [Formula 9g], the “PDE4D inhibition in words” value on consensus PDE4D sequence is reported as “tracked well with EGM1's IC50:EC50 ratio”.
